According to US10196383B2, “Substituted quinazoline compounds and preparation and uses thereof” (Sunshine Lake Pharma Co., Ltd., priority 2015, dated 2019):

Tests used:
[1] = target: humanized OX1 receptor (Homo sapiens (Human), UniProt O43613); experiment: Antagonism of humanized OX1 receptor assay (fluorescence detection of free cytoplasmic calcium, 3 nM orexin A); format: cell-based; settings: humanized OX1 receptor transfected CHO cells
Method: The capability of the compounds to the antagonism of humanized OX1 receptor transfected to the Chinese hamster ovary (CHO) cells was evaluated by the method of fluorescence detected free calcium concentration in the cytoplasm. The cells were suspended in a cell culture medium (invitrogen), and then plated to a microplate with an average density of 2×10^4 cells/well. The fluorescent probes (Fluo4 NW, Invitrogen) was mixed with probenecid Hank's balanced salt solution (invitrogen), followed by addition of 20 mM hydroxyethyl piperazine […] (invitrogen) (pH 7.4). The resulting mixture was eventually added to the microwells containing cells. The cells were incubated at 37° C. for 60 min, and then balanced at 22° C. for 15 min. The microplate was placed in a microplate reader (CellLux, PerkinElmer), and the solution of test compound with different concentrations or Hank's balanced salt solution was added. The microplate containing the solution was incubated for 5 min, followed by the addition of 3 nM of orexin A or a balanced salt solution (as control). The changes of fluorescence intensity proportional to the concentration of calcium ions in the cytoplasm were measured.
With the substrate control as 0 and 3 nM orexin A as 100%, inhibition rate of each compound was recorded. Referring to the compound SB334867, several different concentrations were measured in each experiment. Dose-response curves were made, and IC50 value of each compound was calculated.

[2] = target: humanized OX2 receptor (Homo sapiens (Human), UniProt O43614); experiment: Antagonism of humanized OX2 receptor assay (fluorescence detection of free cytoplasmic calcium, 10 nM orexin B); format: cell-based; settings: humanized OX2 receptor transfected HEK-293 cells
humanized OX2 receptor, sequence (O43614 whole entry): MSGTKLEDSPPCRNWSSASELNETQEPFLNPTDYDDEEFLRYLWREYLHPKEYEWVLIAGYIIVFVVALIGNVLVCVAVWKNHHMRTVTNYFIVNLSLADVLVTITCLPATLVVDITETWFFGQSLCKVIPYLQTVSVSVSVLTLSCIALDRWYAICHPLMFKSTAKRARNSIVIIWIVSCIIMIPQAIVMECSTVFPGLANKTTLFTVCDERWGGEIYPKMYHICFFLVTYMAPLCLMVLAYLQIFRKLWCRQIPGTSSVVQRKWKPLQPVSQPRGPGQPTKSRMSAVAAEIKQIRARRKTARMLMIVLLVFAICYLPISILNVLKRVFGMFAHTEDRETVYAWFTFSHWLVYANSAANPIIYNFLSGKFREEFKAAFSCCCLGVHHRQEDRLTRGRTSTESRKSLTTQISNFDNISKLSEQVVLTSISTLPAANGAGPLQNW
Method: The capability of the compounds to antagonism of humanized OX2 receptor transfected by the HEK-293 cells was evaluated by the method of fluorescence detected free calcium concentration in the cytoplasm. The cells were suspended in cell culture medium (invitrogen), and then added to a microplate with an average density of 3×10^4 cells/well. The fluorescent probes (Fluo4 NW, Invitrogen) was mixed with probenecid Hank's balanced salt solution (invitrogen), followed by addition of 20 mM hydroxyethyl piperazine […] (invitrogen) (pH 7.4). The resulting mixture was eventually added to the microwells containing cells. The cells were incubated at 37° C. for 60 min, and then balanced at 22° C. for 15 min. The microplate was placed in a microplate reader (CellLux, PerkinElmer), and the solution of test compound with different concentrations or Hank's balanced salt solution was added. The microplate containing the solution was incubated for 5 min, followed by the addition of 10 nM of orexin B or a balanced salt solution (as control). The changes of fluorescence intensity proportional to the concentration of calcium ions in the cytoplasm were measured.
With the substrate control as 0 and 10 nM of orexin B as 100%, inhibition rate of each compound was recorded. Referring to the compound JNJ10397049, several different concentrations were measured in each experiment. Dose-response curves were made, and IC50 value of each compound was calculated.

[3] = Pharmacokinetic evaluation with intravenous or oral administration; format: in vivo; settings: rats; for AUC(0-inf) / AUC(0-t) / Cmax / Tmax / clearance / Vd: rat, plasma; for Vd: read-out: Vss
Method: Pharmacokinetics of the compound of the present invention in rats, dogs or monkeys was evaluated in the present invention. The compounds of this invention were administered with a saline solution of 5% DMSO+5% Kolliphor HS 15+2% (2% HCl)+88% Saline or 10% DMSO+10% Kolliphor HS 15+80% physiological. For intravenous administration, the animals were given a dose of 1 mg/kg, drew blood (0.3 mL) at the time point of 0.083, 0.25, 0.5, 1.0, 2.0, 4.0, 6.0, 8.0 and 24 h, and centrifuged in 3,000 or 4,000 rpm for 10 min. For oral (p.o.) administration, the animals were given a dose of 2.5 mg/kg or 5 mg/kg, drew blood (0.3 mL) at the time point of 0.25, 0.5, 1.0, 2.0, 4.0, 6.0, 8.0 and 24 h, and centrifuged in 3,000 or 4,000 rpm for 10 min. Plasma solution was collected and was stored at −20° C. or […] until LC/MS/MS analysis.

[4] = intravenous administration, 1 mg/kg

humanized OX1 receptor, sequence (O43613 whole entry): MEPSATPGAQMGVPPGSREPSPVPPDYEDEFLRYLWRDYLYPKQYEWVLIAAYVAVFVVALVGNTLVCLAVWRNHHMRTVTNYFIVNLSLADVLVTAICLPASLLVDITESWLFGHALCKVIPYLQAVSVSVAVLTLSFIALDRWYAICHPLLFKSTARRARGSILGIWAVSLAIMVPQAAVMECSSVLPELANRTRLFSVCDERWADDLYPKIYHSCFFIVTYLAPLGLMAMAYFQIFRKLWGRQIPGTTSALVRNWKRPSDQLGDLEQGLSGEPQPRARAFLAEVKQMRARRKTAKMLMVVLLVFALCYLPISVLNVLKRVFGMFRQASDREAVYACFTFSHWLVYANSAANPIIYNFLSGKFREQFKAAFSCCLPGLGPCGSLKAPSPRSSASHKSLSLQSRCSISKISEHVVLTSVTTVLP

SMILES | IC50 [1] | IC50 [2] | AUC(0-inf) [3, 4] | AUC(0-t) [3, 4] | Cmax [3, 4] | Tmax [3, 4] | clearance [3, 4] | Vd [3, 4] | AUC(0-inf) ([3]; oral administration, 5 mg/kg) | AUC(0-t) ([3]; oral administration, 5 mg/kg) | Cmax ([3]; oral administration, 5 mg/kg) | Tmax ([3]; oral administration, 5 mg/kg) | F ([3]; oral administration, 5 mg/kg) | AUC(0-inf) ([3]; oral administration, 2.5 mg/kg) | AUC(0-t) ([3]; oral administration, 2.5 mg/kg) | Cmax ([3]; oral administration, 2.5 mg/kg) | Tmax ([3]; oral administration, 2.5 mg/kg) | F ([3]; oral administration, 2.5 mg/kg)
O=C(c1ccccc1-n1nccn1)N1CCCN(c2nc3ccc(Cl)cc3c(=O)[nH]2)CC1 [Example 7, 2-(4-(2-(2H-1,2,3-triazol-2-yl)benzoyl)-1,4-diazepan-1-yl)-6-chloroquinazolin-4(3H)-one] | – | – | 3700 ng·h/mL | 3450 ng·h/mL | 4080 ng/mL | 4.98 min | 4.52 mL/min/kg | 1.33 L/kg | 15000 ng·h/mL | 14300 ng·h/mL | 13800 ng/mL | 15 min | 83.1% | – | – | – | – | –
Cc1ccc(-n2nccn2)c(C(=O)N2CCN(c3nc4ccc(F)cc4c(=O)[nH]3)CCC2C)c1 (centres unmarked) [Example 2, 6-fluoro-2-(5-methyl-4-(5-methyl-2-(2H-1,2,3-triazol-2-yl)benzoyl)-1,4-diazepan-1-yl)quinazolin-4(3H)-one] | 543 nM | 169 nM | 866 ng·h/mL | 865 ng·h/mL | 1400 ng/mL | 4.98 min | 19.2 mL/min/kg | 0.66 L/kg | – | – | – | – | – | 1780 ng·h/mL | 1770 ng·h/mL | 1940 ng/mL | 20 min | 81.8%

Further compounds by falling IC50 [1], results first:

IC50 [1] | IC50 [2] | AUC(0-inf) [3, 4] | AUC(0-t) [3, 4] | Cmax [3, 4] | Tmax [3, 4] | clearance [3, 4] | Vd [3, 4] | AUC(0-inf) ([3]; oral administration, 5 mg/kg) | AUC(0-t) ([3]; oral administration, 5 mg/kg) | Cmax ([3]; oral administration, 5 mg/kg) | Tmax ([3]; oral administration, 5 mg/kg) | F ([3]; oral administration, 5 mg/kg) | AUC(0-inf) ([3]; oral administration, 2.5 mg/kg) | AUC(0-t) ([3]; oral administration, 2.5 mg/kg) | Cmax ([3]; oral administration, 2.5 mg/kg) | Tmax ([3]; oral administration, 2.5 mg/kg) | F ([3]; oral administration, 2.5 mg/kg) | SMILES
367 nM | 221 nM | 1740 ng·h/mL | 1730 ng·h/mL | 3660 ng/mL | 4.98 min | 9.66 mL/min/kg | 0.292 L/kg | 6840 ng·h/mL | 6800 ng·h/mL | 5680 ng/mL | 20 min | 79% | – | – | – | – | – | Cc1ccc(-n2nccn2)c(C(=O)N2CCN(c3nc4ccc(Cl)cc4c(=O)[nH]3)CCC2C)c1 (centres unmarked) [Example 6, 6-chloro-2-(5-methyl-4-(5-methyl-2-(2H-1,2,3-triazol-2-yl)benzoyl)-1,4-diazepan-1-yl)quinazolin-4(3H)-one]
322 nM | 300 nM | – | – | – | – | – | – | – | – | – | – | – | – | – | – | – | – | Cc1ccc(-n2nccn2)c(C(=O)N2CCCN(c3nc4ccc(F)cc4c(=O)[nH]3)CC2)c1 [Example 1, 6-fluoro-2-(4-(5-methyl-2-(2H-1,2,3-triazol-2-yl)benzoyl)-1,4-diazepan-1-yl)quinazolin-4(3H)-one]
276 nM | 263 nM | – | – | – | – | – | – | – | – | – | – | – | – | – | – | – | – | Cc1ccc(-n2nccn2)c(C(=O)N2CCCN(c3nc4ccc(Cl)cc4c(=O)[nH]3)CC2)c1 [Example 5, 6-chloro-2-(4-(5-methyl-2-(2H-1,2,3-triazol-2-yl)benzoyl)-1,4-diazepan-1-yl)quinazolin-4(3H)-one]
